Reference: the OligoGym collection
HELM strings list units from the 5' end as sugar, base in round brackets, then linkage (d deoxyribose, r ribose, m 2'-O-methyl, p phosphodiester). Strings are as the collection lists them, not checked against the first reports. ss, as = sense and antisense strand; [una] = unlocked nucleic acid; [hna] = hexitol nucleic acid; [s4r] = 4'-thioribose; [fl2r] = 2'-fluoro

Details: siRNA
Note: test system not given here.

Q: With “RNA1{r(C)p.r(G)p.r(U)p.r(A)p.r(C)p.r(G)p.r(C)p.r(G)p.r(G)p.r(A)p.r(A)p.r(U)p.r(A)p.r(C)p.r(U)p.r(U)p.r(C)p.[s4r](G)p.[s4r](A)p.r(T)p.r(T)}|RNA2{[s4r](U)p.[s4r](C)p.r(G)p.r(A)p.r(A)p.r(G)p.r(U)p.r(A)p.r(U)p.r(U)p.r(C)p.r(C)p.r(G)p.r(C)p.r(G)p.r(U)p.r(A)p.r(C)p.r(G)p.r(T)p.r(T)}$$$RNA1{StrandType:ss}|RNA2{StrandType:as}$” as the substance, how does the target mRNA knockdown read?
A: 91.2%

Q: With “RNA1{m(C)p.m(G)p.m(U)p.m(A)p.m(C)p.m(G)p.r(C)p.r(G)p.r(G)p.r(A)p.r(A)p.r(U)p.r(A)p.r(C)p.r(U)p.r(U)p.r(C)p.r(G)p.r(A)p.r(T)p.r(T)}|RNA2{r(U)p.r(C)p.r(G)p.r(A)p.r(A)p.r(G)p.r(U)p.r(A)p.r(U)p.r(U)p.r(C)p.r(C)p.r(G)p.r(C)p.r(G)p.r(U)p.r(A)p.r(C)p.r(G)p.r(T)p.r(T)}$$$RNA1{StrandType:ss}|RNA2{StrandType:as}$” as the substance, how does the target mRNA knockdown read?
A: 94.8%

Q: For “RNA1{r(G)p.r(U)p.r(A)p.r(U)p.r(G)p.r(A)p.r(C)p.r(C)p.r(G)p.r(A)p.r(C)p.r(U)p.r(A)p.r(C)p.r(G)p.r(C)p.r(G)p.r(U)p.r(A)p.r(T)p.r(T)}|RNA2{r(U)p.r(U)p.r(C)p.r(A)p.r(G)p.r(U)p.r(G)p.r(U)p.r(G)p.r(A)p.r(U)p.[una](G)p.r(A)p.r(C)p.r(A)p.r(C)p.r(U)p.r(U)p.r(G)p.r(T)p.r(T)}$$$RNA1{StrandType:ss}|RNA2{StrandType:as}$”, which target mRNA knockdown is on record?
A: 59%

Q: For “RNA1{[s4r](A)p.[s4r](A)p.[s4r](A)p.[s4r](C)p.r(A)p.r(U)p.r(G)p.r(C)p.r(A)p.r(G)p.r(A)p.r(A)p.r(A)p.r(A)p.r(U)p.r(G)p.r(C)p.r(U)p.r(G)p.r(T)p.r(T)}|RNA2{r(C)p.r(A)p.r(G)p.r(C)p.r(A)p.r(U)p.r(U)p.r(U)p.r(U)p.r(C)p.r(U)p.r(G)p.r(C)p.r(A)p.r(U)p.r(G)p.r(U)p.[s4r](U)p.[s4r](U)p.r(T)p.r(T)}$$$RNA1{StrandType:ss}|RNA2{StrandType:as}$”, which target mRNA knockdown is on record?
A: 76.5%

Q: Which target mRNA knockdown does the source give for “RNA1{r(G)p.r(A)p.r(C)p.r(G)p.r(U)p.r(A)p.r(A)p.r(A)p.r(C)p.r(G)p.r(G)p.r(C)p.r(C)p.r(A)p.r(C)p.r(A)p.r(A)p.r(G)p.r(U)p.r(U)p.r(C)}|RNA2{[fl2r](A)p.m(C)p.[fl2r](U)p.m(U)p.[fl2r](G)p.m(U)p.[fl2r](G)p.m(G)p.[fl2r](C)p.m(C)p.[fl2r](G)p.m(U)p.[fl2r](U)p.m(U)p.[fl2r](A)p.m(C)p.[fl2r](G)p.m(U)p.[fl2r](C)p.m(G)p.[fl2r](C)}$$$RNA1{StrandType:ss}|RNA2{StrandType:as}$” here?
A: 73.8%

Q: For “RNA1{r(A)p.r(U)p.r(G)p.r(G)p.r(G)p.r(A)p.r(G)p.r(A)p.r(A)p.r(G)p.m(U)p.r(A)p.r(G)p.r(U)p.r(C)p.r(C)p.r(C)p.r(C)p.r(C)p.r(T)p.r(T)}|RNA2{r(G)p.r(G)p.r(G)p.r(G)p.r(G)p.r(A)p.r(C)p.m(U)p.r(A)p.r(C)p.r(U)p.r(U)p.r(C)p.r(U)p.r(C)p.r(C)p.r(C)p.r(A)p.r(U)p.r(T)p.r(T)}$$$RNA1{StrandType:ss}|RNA2{StrandType:as}$”, which target mRNA knockdown is on record?
A: 84%

Q: For “RNA1{r(A)p.r(G)p.r(G)p.r(A)p.r(C)p.r(G)p.r(G)p.r(U)p.r(A)p.r(C)p.r(U)p.r(U)p.r(U)p.r(C)p.r(G)p.r(A)p.r(A)p.r(A)p.r(G)p.r(T)p.r(T)}|RNA2{r(C)p.r(U)p.r(U)p.r(U)p.r(C)p.r(G)p.r(A)p.r(A)p.r(A)p.r(G)p.r(U)p.m(A)p.r(C)p.r(C)p.r(G)p.r(U)p.r(C)p.r(C)p.r(U)p.r(T)p.r(T)}$$$RNA1{StrandType:ss}|RNA2{StrandType:as}$”, which target mRNA knockdown is on record?
A: 46%

Q: With “RNA1{r(C)p.r(U)p.r(C)p.r(C)p.r(G)p.r(A)p.r(C)p.r(A)p.r(G)p.r(A)p.m(U)p.r(G)p.r(A)p.r(A)p.r(G)p.r(G)p.r(A)p.r(A)p.r(A)p.r(T)p.r(T)}|RNA2{r(U)p.r(U)p.r(U)p.r(C)p.r(C)p.r(U)p.r(U)p.r(C)p.r(A)p.r(U)p.r(C)p.m(U)p.r(G)p.r(U)p.r(C)p.r(G)p.r(G)p.r(A)p.r(G)p.r(T)p.r(T)}$$$RNA1{StrandType:ss}|RNA2{StrandType:as}$” as the substance, how does the target mRNA knockdown read?
A: 72%

Q: For “RNA1{[s4r](C)p.[s4r](G)p.[s4r](U)p.[s4r](A)p.r(C)p.r(G)p.r(C)p.r(G)p.r(G)p.r(A)p.r(A)p.r(U)p.r(A)p.r(C)p.r(U)p.[s4r](U)p.[s4r](C)p.[s4r](G)p.[s4r](A)p.r(T)p.r(T)}|RNA2{r(U)p.r(C)p.r(G)p.r(A)p.r(A)p.r(G)p.r(U)p.r(A)p.r(U)p.r(U)p.r(C)p.r(C)p.r(G)p.r(C)p.r(G)p.[s4r](U)p.[s4r](A)p.[s4r](C)p.[s4r](G)p.r(T)p.r(T)}$$$RNA1{StrandType:ss}|RNA2{StrandType:as}$”, which target mRNA knockdown is on record?
A: 88.1%

Q: With “RNA1{r(A)p.r(U)p.r(C)p.r(C)p.m(U)p.r(G)p.m(C)p.r(A)p.r(G)p.r(A)p.r(A)p.r(G)p.r(A)p.r(A)p.r(G)p.r(C)p.r(C)p.r(U)p.r(C)p.r(T)p.r(T)}|RNA2{r(G)p.r(A)p.r(G)p.r(G)p.r(C)p.r(U)p.r(U)p.r(C)p.r(U)p.r(U)p.r(C)p.r(U)p.r(G)p.r(C)p.r(A)p.r(G)p.r(G)p.r(A)p.r(U)p.r(T)p.r(T)}$$$RNA1{StrandType:ss}|RNA2{StrandType:as}$” as the substance, how does the target mRNA knockdown read?
A: 74%

Q: Which target mRNA knockdown does the source give for “RNA1{m(C)p.r(G)p.m(G)p.r(A)p.m(U)p.r(C)p.m(U)p.r(A)p.m(C)p.r(A)p.m(C)p.r(C)p.m(U)p.r(U)p.m(C)p.r(A)p.m(A)p.r(G)p.m(A)p.r(T)p.r(T)}|RNA2{m(U)p.r(C)p.m(U)p.m(U)p.r(G)p.r(A)p.r(A)p.r(G)p.r(G)p.m(U)p.r(G)p.m(U)p.r(A)p.r(G)p.r(A)p.m(U)p.r(C)p.r(C)p.r(G)p.r(T)p.r(T)}$$$RNA1{StrandType:ss}|RNA2{StrandType:as}$” here?
A: 29%

Q: With “RNA1{r(G)p.r(U)p.r(A)p.r(U)p.r(G)p.r(A)p.r(C)p.r(C)p.r(G)p.r(A)p.r(C)p.r(U)p.r(A)p.r(C)p.r(G)p.r(C)p.r(G)p.r(U)p.r(A)p.r(T)p.r(T)}|RNA2{r(U)p.r(U)p.r(C)p.r(A)p.r(G)p.r(U)p.[una](G)p.r(U)p.r(G)p.r(A)p.r(U)p.r(G)p.r(A)p.r(C)p.r(A)p.r(C)p.r(U)p.r(U)p.r(G)p.r(T)p.r(T)}$$$RNA1{StrandType:ss}|RNA2{StrandType:as}$” as the substance, how does the target mRNA knockdown read?
A: 86%

Q: Which target mRNA knockdown does the source give for “RNA1{r(U)p.r(C)p.r(U)p.r(C)p.r(G)p.m(U)p.m(A)p.r(A)p.r(G)p.r(G)p.r(A)p.r(C)p.r(G)p.r(A)p.m(A)p.r(A)p.m(C)p.r(G)p.r(A)p.r(T)p.r(T)}|RNA2{r(U)p.r(C)p.r(G)p.r(U)p.r(U)p.r(U)p.r(C)p.r(G)p.r(U)p.r(C)p.r(C)p.r(U)p.m(U)p.r(A)p.r(C)p.r(G)p.r(A)p.r(G)p.r(A)p.r(T)p.r(T)}$$$RNA1{StrandType:ss}|RNA2{StrandType:as}$” here?
A: 52%

Q: For “RNA1{r(C)p.r(C)p.r(U)p.r(C)p.r(G)p.r(G)p.r(A)p.r(G)p.r(A)p.r(G)p.r(U)p.r(U)p.r(C)p.r(U)p.r(A)p.r(C)p.r(U)p.r(C)p.r(U)p.r(T)p.r(T)}|RNA2{r(A)p.r(G)p.r(A)p.r(G)p.m(U)p.r(A)p.r(G)p.r(A)p.r(A)p.r(C)p.r(U)p.r(C)p.r(U)p.r(C)p.r(C)p.r(G)p.r(A)p.r(G)p.r(G)p.r(T)p.r(T)}$$$RNA1{StrandType:ss}|RNA2{StrandType:as}$”, which target mRNA knockdown is on record?
A: 85%

Q: Which target mRNA knockdown does the source give for “RNA1{r(A)p.r(A)p.r(A)p.r(G)p.r(C)p.r(G)p.r(G)p.m(U)p.m(G)p.r(G)p.r(A)p.r(U)p.m(C)p.r(A)p.r(G)p.r(C)p.r(U)p.r(C)p.r(U)p.r(T)p.r(T)}|RNA2{r(A)p.r(G)p.r(A)p.r(G)p.r(C)p.m(U)p.r(G)p.r(A)p.r(U)p.r(C)p.m(C)p.m(A)p.r(C)p.r(C)p.r(G)p.r(C)p.r(U)p.r(U)p.r(U)p.r(T)p.r(T)}$$$RNA1{StrandType:ss}|RNA2{StrandType:as}$” here?
A: 63%

Q: For “RNA1{m(C)p.r(C)p.m(G)p.r(A)p.m(G)p.r(A)p.m(G)p.r(C)p.m(U)p.r(C)p.m(U)p.r(C)p.m(C)p.r(U)p.m(A)p.r(C)p.m(C)p.r(U)p.m(U)p.r(T)p.r(T)}|RNA2{r(A)p.r(A)p.r(G)p.r(G)p.r(U)p.r(A)p.r(G)p.r(G)p.r(A)p.r(G)p.r(A)p.r(G)p.r(C)p.r(U)p.r(C)p.r(U)p.r(C)p.r(G)p.r(G)p.r(T)p.r(T)}$$$RNA1{StrandType:ss}|RNA2{StrandType:as}$”, which target mRNA knockdown is on record?
A: 34%

Q: With “RNA1{r(G)p.r(A)p.r(C)p.r(G)p.[hna](U)p.r(A)p.r(A)p.[hna](A)p.r(C)p.r(G)p.[hna](G)p.r(C)p.r(C)p.[hna](A)p.r(C)p.r(A)p.r(A)p.r(G)p.r(U)p.[hna](U)p.d(T)}|RNA2{[fl2r](A)p.m(C)p.[fl2r](U)p.m(U)p.[fl2r](G)p.m(U)p.[fl2r](G)p.m(G)p.[fl2r](C)p.m(C)p.[fl2r](G)p.m(U)p.[fl2r](U)p.m(U)p.[fl2r](A)p.m(C)p.[fl2r](G)p.m(U)p.[fl2r](C)p.m(G)p.[fl2r](C)}$$$RNA1{StrandType:ss}|RNA2{StrandType:as}$” as the substance, how does the target mRNA knockdown read?
A: 13.2%

Q: With “RNA1{r(A)p.r(A)p.r(G)p.r(G)p.m(C)p.r(A)p.m(U)p.m(G)p.r(C)p.r(U)p.r(U)p.r(C)p.r(G)p.r(G)p.r(A)p.r(A)p.r(A)p.r(C)p.r(U)p.r(T)p.r(T)}|RNA2{r(A)p.r(G)p.r(U)p.r(U)p.r(U)p.r(C)p.r(C)p.r(G)p.r(A)p.r(A)p.r(G)p.m(C)p.r(A)p.m(U)p.r(G)p.r(C)p.r(C)p.r(U)p.r(U)p.r(T)p.r(T)}$$$RNA1{StrandType:ss}|RNA2{StrandType:as}$” as the substance, how does the target mRNA knockdown read?
A: 87%

Q: Which target mRNA knockdown does the source give for “RNA1{m(G)p.r(A)p.m(U)p.r(U)p.m(C)p.r(C)p.m(A)p.r(A)p.m(A)p.r(C)p.m(C)p.r(C)p.m(C)p.r(A)p.m(C)p.r(U)p.m(A)p.r(U)p.m(C)p.r(T)p.r(T)}|RNA2{r(G)p.r(A)p.r(U)p.r(A)p.r(G)p.r(U)p.r(G)p.r(G)p.r(G)p.r(G)p.r(U)p.r(U)p.r(U)p.r(G)p.r(G)p.r(A)p.r(A)p.r(U)p.r(C)p.r(T)p.r(T)}$$$RNA1{StrandType:ss}|RNA2{StrandType:as}$” here?
A: 54%

Q: Which target mRNA knockdown does the source give for “RNA1{r(G)p.r(G)p.r(C)p.r(U)p.[fl2r](U)p.r(A)p.r(G)p.r(U)p.r(C)p.r(A)p.r(C)p.r(U)p.r(C)p.r(C)p.r(U)p.r(C)p.r(U)p.r(U)p.r(C)p.r(T)p.r(T)}|RNA2{r(G)p.r(A)p.r(A)p.r(G)p.r(A)p.r(G)p.r(G)p.r(A)p.r(G)p.r(U)p.r(G)p.r(A)p.r(C)p.[fl2r](U)p.r(A)p.r(A)p.r(G)p.r(C)p.r(C)p.r(T)p.r(T)}$$$RNA1{StrandType:ss}|RNA2{StrandType:as}$” here?
A: 69%
